Assay results: PMC8689208, “Structure of a monomeric photosystem II core complex from a cyanobacterium acclimated to far-red light reveals the functions of chlorophylls d and f” (The Journal of Biological Chemistry, 2021)

Target: T1, apo-FRL-PSII (reaction centre PsbA3/PsbD3 sites) (Synechococcus sp. PCC 7335, UniProt B4WKI3+Z9EN74SDD1)
T1 construct: native monomeric core complex from FRL-acclimated cells, ~226 kDa modelled; His6 tag at C-terminus of PsbC2; lacks OEC, extrinsic subunits and PsbH2 in map; PsbF2 assignment tentative; one unknown helix; with Photosystem II CP47 reaction center protein; Photosystem II CP43 reaction center protein; Cytochrome b559 subunit alpha; Cytochrome b559 subunit beta; Photosystem II reaction center protein I; Photosystem II reaction center protein K
Test: cryo-EM structure, […] Å
Type: binding
Details: QA site; QB absent

## CC(C)=CCC/C(C)=C/CC/C(C)=C/CC/C(C)=C/CC/C(C)=C/CC/C(C)=C/CC/C(C)=C/CC/C(C)=C/CC/C(C)=C/CC1=CC(=O)C(C)=C(C)C1=O [plastoquinone]
  cryo-EM structure, 2.25 Å: one heme b, one plastoquinone, one NH-Fe ion
